Experimental data: the RepoRT retention time repository (doi:10.1016/j.chroma.2015.11.014)

Experiment: RP, Agilent ZORBAX Eclipse Plus C18, 150 × 2.1 mm, 3.5 µm, 40 °C, 0.3 mL/min, estimated dead time 1.1 min; A: water + 0.1% formic acid; B: acetonitrile + 0.1% formic acid; gradient (min/%B) 0/2 1/2 2/20 16.5/98 22/98
Details: stereoisomer not certain

| LC retention time | SMILES |
| --- | --- |
| 7.7 min | CCNC(=O)NC1CCCCC1 |
| 5.62 min | O=C(O)c1ccc(O)cc1 |
| 5.77 min | Cc1ccnc(NS(=O)(=O)c2ccc(N)cc2)n1 |
| 9.97 min | CCC(CC)COC(=O)C(C)NP(=O)(OCC1OC(C#N)(c2ccc3c(N)ncnn23)C(O)C1O)Oc1ccccc1 (stereo not drawn) |
| 5.06 min | COCC(O)c1ccc(OCC(O)CNC(C)C)cc1 (stereo not drawn) |
| 10.3 min | CCOc1cc(CC(=O)NC(CC(C)C)c2ccccc2N2CCCCC2)ccc1C(=O)O (stereo not drawn) |
| 12.8 min | CC(C)Cc1ccc(C(C)C(=O)O)cc1 (stereo not drawn) |
| 17.7 min | CCCCC(CC)COC(=O)C(C#N)=C(c1ccccc1)c1ccccc1 (stereo not drawn) |
| 8.5 min | CC(C(=O)O)c1ccc2cc(O)ccc2c1 (stereo not drawn) |
| 9.03 min | CCCCCCCC[N+](C)(C)Cc1ccccc1 |
| 14.5 min | C#CC1(O)CCC2C3CCc4cc(OC)ccc4C3CCC21C (stereo not drawn) |
| 11.7 min | CCCCCCCCCCC(C(=O)OCC)[N+](C)(C)Cc1ccccc1 (stereo not drawn) |
| 5.62 min | NC(Cc1ccc(Oc2ccc(O)cc2)cc1)C(=O)O (stereo not drawn) |
| 6.58 min | COC(=O)Nc1nc2ccc(S(=O)c3ccccc3)cc2[nH]1 (stereo not drawn) |
| 7.25 min | COc1ccc(C(C[N+](C)(C)[O-])C2(O)CCCCC2)cc1 (stereo not drawn) |
| 13.1 min | CCOC(=O)NCCOc1ccc(Oc2ccccc2)cc1 |
| 3.21 min | CC(C)NCC(O)COc1ccc(C(O)C(N)=O)cc1 (stereo not drawn) |
| 5.86 min | COc1cc(C(=O)c2cnc(N)nc2N)cc(OC)c1OC |
| 7.4 min | O=C1CC2(CCCCC2)C(=O)N1 |
| 7.36 min | CC(C)NCC(O)COc1cccc2ccccc12 (stereo not drawn) |
| 5.08 min | CCOC(=O)Nc1cccc(N)c1C |
| 12.5 min | CC1=CC(C)(C)Nc2ccccc21 |
| 7.62 min | CCOc1ccc(NC(C)=O)cc1 |
| 19.6 min | CC(C)(C)CC(C)(C)c1ccc(O)c(-n2nc3ccccc3n2)c1 |
| 6.32 min | COc1ccc(C(CN)C2(O)CCCCC2)cc1 (stereo not drawn) |
| 12.4 min | CCOC(=O)C1=C(C)NC(C)=C(C(=O)OC)C1c1cccc([N+](=O)[O-])c1 (stereo not drawn) |
| 7.71 min | CC(=O)Nc1ccc(C)cc1 |

Further lines, the compound ahead of its results:

| SMILES | LC retention time |
| --- | --- |
| CN(Cc1cnc2nc(N)nc(N)c2n1)c1ccc(C(=O)NC(CCC(=O)O)C(=O)O)cc1 (stereo not drawn) | 4.98 min |
| C#CC[P+](c1ccccc1)(c1ccccc1)c1ccccc1 | 7.93 min |
| Nc1ccn(C2CSC(CO)O2)c(=O)n1 (stereo not drawn) | 3.1 min |
| COc1cccc(C2(O)CCCCC2CN(C)C)c1 (stereo not drawn) | 6.21 min |
| CCCCCCCCCCCCCCCC[N+](C)(C)CCCCCCCCCCCCCCCC | 18.4 min |
| O=c1[nH]cnc2c1ncn2C1CC(O)C(CO)O1 (stereo not drawn) | 4.18 min |
| Nc1ncnc2c1ncn2C1CC(O)C(COP(=O)(O)O)O1 (stereo not drawn) | 2.17 min |
| c1ccc2sc(C3CCCNC3)nc2c1 (stereo not drawn) | 5.62 min |
| CCCCCCCCN | 6.9 min |
| CC1=CC(=O)NS(=O)(=O)O1 | 4.12 min |
| CN1C(C(=O)Nc2ccccn2)=C(O)c2ccccc2S1(=O)=O | 9.53 min |
| COc1ccc(C(CN(C)C)C2(O)CCCCC2)cc1 (stereo not drawn) | 6.63 min |
| CCCC1OC2CC3C4CCC5=CC(=O)C=CC5(C)C4C(O)CC3(C)C2(C(=O)CO)O1 (stereo not drawn) | 11 min |
| CCC1CCCC(OC2CCC(N(C)C)C(C)O2)C(C)C(=O)C2=CC3C(C=CC4CC(OC5OC(C)C(OC)C(OC)C5OC)CC43)C2CC(=O)O1 (stereo not drawn) | 10.4 min |
| CC(CC(C)(C)C)CP(=O)(O)CC(C)CC(C)(C)C (stereo not drawn) | 14.4 min |
| CC(C)(c1ccc(O)c([N+](=O)[O-])c1)c1ccc(O)c([N+](=O)[O-])c1 | 13.8 min |

| SMILES | LC retention time |
| --- | --- |
| CNC(=O)ON=CC(C)(C)SC | 8.4 min |
| O=C(NO)c1ccccc1 | 4.89 min |
| ON(Cc1ccccc1)Cc1ccccc1 | 8.96 min |
| CCCCCCCCCCCCCN1CC(C)OC(C)C1 (stereo not drawn) | 10.4 min |
| O=C([O-])CCCC[P+](c1ccccc1)(c1ccccc1)c1ccccc1 | 7.21 min |
| C=C(OCC)[P+](c1ccccc1)(c1ccccc1)c1ccccc1 | 9.3 min |
| CCN(Cc1cccc(S(=O)(=O)O)c1)c1ccc(C(=C2C=CC(=[N+](CC)Cc3cccc(S(=O)(=O)O)c3)C=C2)c2ccccc2S(=O)(=O)[O-])cc1 | 7.08 min |
| CC1(C)CC(=O)CC(C)(C)N1 | 2.82 min |
| O=C1OC2(c3ccc(O)cc3Oc3cc(O)ccc32)c2ccccc21 | 9.53 min |
| COC1C=COC2(C)Oc3c(C)c(O)c4c(O)c(c5c(nc6cc(C)ccn65)c4c3C2=O)NC(=O)C(C)=CC=CC(C)C(O)C(C)C(O)C(C)C(OC(C)=O)C1C (stereo not drawn) | 11.8 min |
| O=P(O)(O)c1ccccc1 | 3.09 min |
| Nc1nc(NC2CC2)c2ncn(C3C=CC(C(=O)O)C3)c2n1 (stereo not drawn) | 5.19 min |
| CC(C)OP(=O)(Oc1ccccc1)Oc1ccccc1 | 12.8 min |
| c1ccc(COCCC[P+](c2ccccc2)(c2ccccc2)c2ccccc2)cc1 | 9.73 min |
| O=P(c1ccccc1)(c1ccccc1)c1ccccc1 | 10.5 min |
